Results as given in ChEMBL document CHEMBL1126373, “HIV and reverse transcriptase inhibition by tannins” (Bioorg Med Chem Lett, 1992).
Active and inactive are the calls of the source. No cut-off for these calls is given here.

Assays:
[1] = system: Human immunodeficiency virus 1; test: Compound was tested for anti-HIV activity in cell culture assay; active anti HIV agent; type: functional, organism-based
[2] = (§1) Therapeutic index was determined; details: Human immunodeficiency virus 1
[3] = system: Human immunodeficiency virus 1; test: Anti-HIV activity in cell culture assay expressed as IC50 values.; type: functional, organism-based
[4] = system: Human immunodeficiency virus 1; test: Inhibition against HIV replication in cell culture at 20 ug/mL; type: functional; details: for inhibition at 20 µg/mL: Human immunodeficiency virus 1
[5] = system: Human immunodeficiency virus 1; test: Anti-HIV activity in cell culture assay expressed as EC50 values.; type: functional, organism-based
[6] = system: Human immunodeficiency virus 1; test: as §1; details: read-out: Therapeutic index
[7] = system: Human immunodeficiency virus 1; test: Compound was tested for anti-HIV activity in cell culture assay expressed as IC50 values; type: functional, organism-based
[8] = molecular target: Human immunodeficiency virus type 1 reverse transcriptase (Human immunodeficiency virus 1) (UniProt Q72547); test: Inhibition against HIV- reverse transcriptase in cell culture at 20 ug/mL

Compound | Activity [1] | selectivity ratio [6] | inhibition at 20 µg/mL [4] [%] | inhibition [8] [%] | EC50 ([5]; Human immunodeficiency virus 1) [µM] | IC50 ([3]; Human immunodeficiency virus 1) [µM] | other results
O=C(Oc1c(O)cc(C(=O)O[C@H]2[C@H](OC(=O)c3cc(O)c(O)c(O)c3)C[C@](O)(C(=O)O)C[C@H]2OC(=O)c2cc(O)c(O)c(O)c2)cc1O)c1cc(O)c(O)c(O)c1 | active anti HIV agent | – | – | – | – | – | –
O=C1OC(C2OC(=O)c3cc(O)c(O)c(O)c3-c3c(O)c(O)c4oc(=O)c5c(c(O)c(O)c6oc(=O)c3c4c65)-c3c(cc(O)c(O)c3O)C(=O)OCC2O)C2OC(=O)c3c(c(O)c(O)c(O)c3[C@H]2O)-c2c1cc(O)c(O)c2O (stereo not given in full) | active anti HIV agent | – | – | – | – | – | –
O=C(OC[C@H]1O[C@@H](OC(=O)c2cc(O)c(O)c(O)c2)[C@H](OC(=O)c2cc(O)c(O)c(O)c2)[C@@H](OC(=O)c2cc(O)c(O)c(O)c2)[C@@H]1OC(=O)c1cc(O)c(O)c(O)c1)c1cc(O)c(O)c(O)c1 (stereo in doubt; 10) [PENTAGALLOYL GLUCOSE] | – | – | – | – | – | – | Therapeutic index [2]: 1.3; IC50 [3]: 19 µM; Inhibition [4]: 60%; EC50 [5]: 15 µM
O=C(O[C@@H]1O[C@H](CO)[C@@H](O)[C@H](O)[C@H]1O)c1cc(O)c(O)c(O)c1 | – | 0.8 | 0 | 18 | 100 | – | IC50 [7]: 80 µM
O=C(Oc1c(O)cc(C(=O)O[C@@H]2C[C@](O)(C(=O)O)C[C@@H](OC(=O)c3cc(O)c(O)c(O)c3)[C@H]2OC(=O)c2cc(O)c(O)c(O)c2)cc1O)c1cc(O)c(O)c(O)c1 | active anti HIV agent | – | – | – | – | – | –
O=C1OCC2OC(=O)c3cc(O)c(O)c(O)c3-c3c(O)c(O)c(O)c4c3C(=O)OC(C2OC(=O)c2cc(O)c(O)c(O)c2-c2c1cc(O)c(O)c2O)C1OC(=O)c2c-4c(O)c(O)c(O)c2[C@@H]1O (stereo not given in full) | – | 1 | 90 | 40 | 15 | 15 | –
O=C1c2c(O)cc(O)cc2O[C@H](c2ccc(O)c(O)c2)[C@H]1O [(+)-TAXIFOLIN] | – | 1 | 40 | 22 | 45 | 45 | –
O=C1OCC2OC(=O)c3cc(O)c(O)c(O)c3-c3c(O)c(O)c(O)c4c3C(=O)OC(C2OC(=O)c2cc(O)c(O)c(O)c2-c2c1cc(O)c(O)c2O)C1OC(=O)C2C4=C(O)C(=O)C23Oc2cc(O)c4c(c2[C@H]13)O[C@H](c1ccc(O)c(O)c1)[C@@H](O)C4 (stereo not given in full) | – | 3.8 | 89 | 23 | 4 | 15 | –
O=C(O[C@H]1[C@H](O)C[C@](O)(C(=O)O)C[C@H]1O)c1cc(O)c(O)c(O)c1 | – | < 0.8 | 0 | 0 | > 100 | 80 | –
O=C(O[C@@H]1C[C@](OC(=O)c2cc(O)c(O)c(O)c2)(C(=O)O)C[C@@H](OC(=O)c2cc(O)c(O)c(O)c2)[C@H]1OC(=O)c1cc(O)c(O)c(O)c1)c1cc(O)c(O)c(O)c1 | Active | – | – | – | – | – | –
O=C(OC[C@H]1O[C@@H](OC(=O)c2cc(O)c(O)c(O)c2)[C@H](O)[C@@H](O)[C@@H]1O)c1cc(O)c(O)c(O)c1 | – | 0.8 | 40 | 14 | 50 | – | IC50 [7]: 38 µM
O=C(O[C@@H]1O[C@@H]2COC(=O)c3cc(O)c(O)c(O)c3-c3c(cc(O)c(O)c3O)C(=O)O[C@H]([C@H]1OC(=O)c1cc(O)c(O)c(O)c1)[C@@H]2OC(=O)c1cc(O)c(O)c(O)c1)c1cc(O)c(O)c(O)c1 [PUNICAFOLIN] | – | 1.8 | 60 | 0 | 19 | 34 | –
O=C1OC[C@H]2O[C@@H](O)[C@H](O)[C@@H](O)[C@@H]2OC(=O)c2cc(O)c(O)c(O)c2-c2c(O)c(O)c3oc(=O)c4c(c(O)c(O)c5oc(=O)c2c3c54)-c2c1cc(O)c(O)c2O | active anti HIV agent | – | – | – | – | – | –
O=C1O[C@H]2[C@@H]3OC(=O)c4cc(O)c(O)c(O)c4-c4c(cc(O)c(O)c4O)C(=O)OC[C@H]2O[C@@H](OC(=O)c2cc(O)c(O)c(O)c2)[C@@H]3OC(=O)c2cc(O)c(O)c3c2[C@@H]2C1=CC(=O)C(O)(O)C2(O)O3 (stereo not given in full) | – | 1.2 | 92 | 15 | 12 | 14 | –
O=C(Oc1c(O)cc(C(=O)O[C@@H]2C[C@@](O)(C(=O)O)C[C@@H](OC(=O)c3cc(O)c(O)c(O)c3)[C@@H]2OC(=O)c2cc(O)c(O)c(O)c2)cc1O)c1cc(O)c(O)c(O)c1 | active anti HIV agent | – | – | – | – | – | –
